Reference: ChEMBL document CHEMBL4715701, “A new chromanone derivative isolated from Hypericum lissophloeus (Hypericaceae) potentiates GABAA receptor currents in a subunit specific fashion” (Bioorg Med Chem, 2016)
The source made the active and inactive calls. No cut-off for these calls is given here.

Key:
[1] = Ex vivo inhibition of synaptosomal serotonin re-uptake 10 to 100 uM relative to control; assay type: functional, subcellular; conditions: Synaptosome; dose 10-100 µM
[2] = molecular target: T1, GABA-A receptor; alpha-1/beta-2/gamma-2 (Homo sapiens) (UniProt P14867+P47870+P18507); assay: Allosteric modulation of GABAA alpha1beta2gamma2 (unknown origin) expressed in Xenopus oocytes assessed as potentiation of GABA-induced current response at 0.1 uM at -80 mV holding potential incubated for 3 mins by two electrode voltage clamp method relative to control; assay type: cell-based; conditions: Oocyte, filed as positive allosteric modulator
Homo sapiens = species: Homo sapiens; assay: Allosteric modulation of GABA(A)/BzR (unknown origin) assessed as potentiation of GABA-induced current response at 3 uM relative to control; conditions: filed as positive allosteric modulator
[3] = molecular target: T1, GABA-A receptor; alpha-1/beta-2/gamma-2 (Homo sapiens); assay: Allosteric modulation of GABAA alpha1beta2gamma2 (unknown origin) expressed in Xenopus oocytes assessed as potentiation of GABA-induced current response at -80 mV holding potential incubated for 3 mins by two electrode voltage clamp method relative to control; assay type: cell-based; conditions: Oocyte, filed as positive allosteric modulator
[4] = Ex vivo inhibition of synaptosomal serotonin re-uptake 100 uM; assay type: functional, subcellular; conditions: Synaptosome
[5] = molecular target: Gamma-aminobutyric acid receptor subunit alpha-1/beta-2/delta (Homo sapiens) (UniProt P14867+P47870+O14764); assay: Allosteric modulation of GABAA alpha1beta2delta (unknown origin) expressed in Xenopus oocytes assessed as potentiation of GABA-induced current response at 3 uM at -80 mV holding potential incubated for 3 mins by two electrode voltage clamp method; assay type: cell-based; conditions: Oocyte, filed as positive allosteric modulator
Oocyte [6] = assay: Allosteric modulation of GABAA alpha1beta2gamma2S280I mutant (unknown origin) expressed in Xenopus oocytes assessed as potentiation of GABA-induced current response at 3 uM at -80 mV holding potential incubated for 3 mins by two electrode voltage clamp method; assay type: cell-based; conditions: Homo sapiens
Oocyte [7] = assay: Allosteric modulation of GABAA alpha3beta2gamma2 (unknown origin) expressed in Xenopus oocytes assessed as potentiation of GABA-induced current response at 3 uM at -80 mV holding potential incubated for 3 mins by two electrode voltage clamp method; assay type: cell-based; conditions: Homo sapiens, filed as positive allosteric modulator
[8] = molecular target: Gamma-aminobutyric acid receptor subunit alpha-5/beta-2/gamma-2 (Homo sapiens) (UniProt P47870+P18507+P31644); assay: Allosteric modulation of GABAA alpha5beta2gamma2 (unknown origin) expressed in Xenopus oocytes assessed as potentiation of GABA-induced current response at 3 uM at -80 mV holding potential incubated for 3 mins by two electrode voltage clamp method; assay type: cell-based; conditions: Oocyte, filed as positive allosteric modulator
[9] = molecular target: T1, GABA-A receptor; alpha-1/beta-2/gamma-2 (Homo sapiens); assay: Allosteric modulation of GABAA alpha1beta2gamma2 (unknown origin) expressed in Xenopus oocytes at 3 uM at -80 mV holding potential incubated for 3 mins by two electrode voltage clamp method relative to control; assay type: cell-based; conditions: Oocyte
[10] = molecular target: GABA-A receptor; alpha-1/beta-3/gamma-2 (Homo sapiens) (UniProt P14867+P18507+P28472); assay: Allosteric modulation of GABAA alpha1beta3gamma2 (unknown origin) expressed in Xenopus oocytes assessed as potentiation of GABA-induced current response at 3 uM at -80 mV holding potential incubated for 3 mins by two electrode voltage clamp method; assay type: cell-based; conditions: Oocyte, filed as positive allosteric modulator
Oocyte [11] = assay: Allosteric modulation of GABAA alpha1beta2N265Igamma2 mutant (unknown origin) expressed in Xenopus oocytes assessed as potentiation of GABA-induced current response at 3 uM at -80 mV holding potential incubated for 3 mins by two electrode voltage clamp method; assay type: cell-based; conditions: Homo sapiens
[12] = molecular target: T1, GABA-A receptor; alpha-1/beta-2/gamma-2 (Homo sapiens); assay: Allosteric modulation of GABAA alpha1beta2gamma2 (unknown origin) expressed in Xenopus oocytes assessed as potentiation of GABA-induced current response at 3 uM at -80 mV holding potential incubated for 3 mins by two electrode voltage clamp method relative to control; assay type: cell-based; conditions: Oocyte, filed as positive allosteric modulator
[13] = molecular target: GABA A receptor alpha-1/beta-1/gamma-2 (Homo sapiens) (UniProt P14867+P18507+P18505); assay: Allosteric modulation of GABAA alpha1beta1gamma2 (unknown origin) expressed in Xenopus oocytes assessed as potentiation of GABA-induced current response at 3 uM at -80 mV holding potential incubated for 3 mins by two electrode voltage clamp method; assay type: cell-based; conditions: Oocyte, filed as positive allosteric modulator
[14] = molecular target: T1, GABA-A receptor; alpha-1/beta-2/gamma-2 (Homo sapiens); assay: Allosteric modulation of GABAA alpha1beta2gamma2 (unknown origin) expressed in Xenopus oocytes assessed as potentiation of GABA-induced current response at 10 uM at -80 mV holding potential incubated for 3 mins by two electrode voltage clamp method; assay type: cell-based; conditions: Oocyte, filed as positive allosteric modulator
[15] = molecular target: T1, GABA-A receptor; alpha-1/beta-2/gamma-2 (Homo sapiens); assay: Allosteric modulation of GABAA alpha1beta2gamma2 (unknown origin) expressed in Xenopus oocytes assessed as potentiation of GABA-induced current response at 3 uM at -80 mV holding potential incubated for 3 mins by two electrode voltage clamp method; assay type: cell-based; conditions: Oocyte, filed as positive allosteric modulator
Oocyte [16] = assay: Allosteric modulation of GABAA alpha1S269Ibeta2gamma2 mutant (unknown origin) expressed in Xenopus oocytes assessed as potentiation of GABA-induced current response at 3 uM at -80 mV holding potential incubated for 3 mins by two electrode voltage clamp method; assay type: cell-based; conditions: Homo sapiens
Oocyte [17] = assay: Allosteric modulation of GABAA alpha1S269Ibeta2N265Igamma2S280I mutant (unknown origin) expressed in Xenopus oocytes assessed as potentiation of GABA-induced current response at 3 uM at -80 mV holding potential incubated for 3 mins by two electrode voltage clamp method; assay type: cell-based; conditions: Homo sapiens
[18] = molecular target: T1, GABA-A receptor; alpha-1/beta-2/gamma-2 (Homo sapiens); assay: Allosteric modulation of GABAA alpha1beta2gamma2 (unknown origin) expressed in Xenopus oocytes assessed as potentiation of GABA-induced current response at 30 uM at -80 mV holding potential incubated for 3 mins by two electrode voltage clamp method; assay type: cell-based; conditions: Oocyte, filed as positive allosteric modulator
Oocyte [19] = assay: Allosteric modulation of GABAA alpha2beta2gamma2 (unknown origin) expressed in Xenopus oocytes assessed as potentiation of GABA-induced current response at 3 uM at -80 mV holding potential incubated for 3 mins by two electrode voltage clamp method; assay type: cell-based; conditions: Homo sapiens, filed as positive allosteric modulator
Oocyte [20] = assay: Allosteric modulation of GABAA alpha6beta2gamma2 (unknown origin) expressed in Xenopus oocytes assessed as potentiation of GABA-induced current response at 3 uM at -80 mV holding potential incubated for 3 mins by two electrode voltage clamp method; assay type: cell-based; conditions: Homo sapiens, filed as positive allosteric modulator
[21] = molecular target: T2, GABA-A receptor; alpha-1/beta-2/gamma-2 (Homo sapiens, UniProt P14867+P18507+P47870); assay: Allosteric modulation of GABAA alpha1beta2gamma2 (unknown origin) expressed in Xenopus oocytes assessed as potentiation of GABA-induced current response at -80 mV holding potential incubated for 3 mins by two electrode voltage clamp method; assay type: cell-based, Oocyte
T2 sequence (P14867 whole entry): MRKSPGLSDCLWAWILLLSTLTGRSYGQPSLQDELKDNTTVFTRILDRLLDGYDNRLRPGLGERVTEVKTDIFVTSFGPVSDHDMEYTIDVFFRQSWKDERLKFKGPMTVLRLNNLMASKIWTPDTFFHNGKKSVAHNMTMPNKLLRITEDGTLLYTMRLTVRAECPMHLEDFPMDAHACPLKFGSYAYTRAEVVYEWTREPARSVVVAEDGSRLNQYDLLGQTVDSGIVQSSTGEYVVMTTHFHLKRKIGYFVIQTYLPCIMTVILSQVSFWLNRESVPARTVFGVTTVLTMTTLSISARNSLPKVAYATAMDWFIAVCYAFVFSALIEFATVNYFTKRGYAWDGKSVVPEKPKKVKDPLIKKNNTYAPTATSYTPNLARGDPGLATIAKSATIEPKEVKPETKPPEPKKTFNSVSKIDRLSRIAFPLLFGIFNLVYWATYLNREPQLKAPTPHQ
T2 sequence (P47870 whole entry): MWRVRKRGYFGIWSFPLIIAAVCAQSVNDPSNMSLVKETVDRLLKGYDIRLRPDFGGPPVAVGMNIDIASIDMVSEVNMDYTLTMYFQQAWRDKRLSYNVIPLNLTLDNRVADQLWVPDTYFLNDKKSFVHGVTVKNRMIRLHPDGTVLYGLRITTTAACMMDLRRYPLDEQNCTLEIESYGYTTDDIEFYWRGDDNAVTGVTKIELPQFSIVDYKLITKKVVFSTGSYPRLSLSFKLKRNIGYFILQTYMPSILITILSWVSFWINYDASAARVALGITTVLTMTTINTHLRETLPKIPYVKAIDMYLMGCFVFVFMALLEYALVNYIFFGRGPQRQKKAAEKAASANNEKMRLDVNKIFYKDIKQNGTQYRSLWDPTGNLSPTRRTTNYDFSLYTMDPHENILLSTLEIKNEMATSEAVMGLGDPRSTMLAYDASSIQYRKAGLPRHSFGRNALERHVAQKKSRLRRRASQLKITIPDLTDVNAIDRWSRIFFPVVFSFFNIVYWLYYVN
T2 sequence (P18507 whole entry): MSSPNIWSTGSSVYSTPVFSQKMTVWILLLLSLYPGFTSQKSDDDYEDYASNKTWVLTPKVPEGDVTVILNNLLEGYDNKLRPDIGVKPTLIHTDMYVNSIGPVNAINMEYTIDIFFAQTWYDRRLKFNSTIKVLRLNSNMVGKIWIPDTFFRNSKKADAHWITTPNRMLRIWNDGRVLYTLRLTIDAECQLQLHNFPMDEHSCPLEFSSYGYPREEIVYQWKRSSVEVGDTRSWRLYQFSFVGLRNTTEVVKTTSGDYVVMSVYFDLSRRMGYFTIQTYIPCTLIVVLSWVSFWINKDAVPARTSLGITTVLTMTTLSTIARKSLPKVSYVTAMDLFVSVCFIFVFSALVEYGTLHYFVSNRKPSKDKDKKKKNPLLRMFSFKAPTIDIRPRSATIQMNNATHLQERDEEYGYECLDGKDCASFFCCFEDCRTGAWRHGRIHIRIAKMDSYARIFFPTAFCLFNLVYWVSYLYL

## CC(C)=CCC[C@]1(C)[C@@H](CC=C(C)C)C[C@]2(CC=C(C)C)C(=O)C(CC=C(C)C)=C(O)[C@@]1(C(=O)C(C)C)C2=O
[1]
  inhibition: 100%

## CN1C(=O)CN=C(c2ccccc2)c2cc(Cl)ccc21
[2]
  Activity: > 200%

## CC(C)=CCc1c(O)cc2c(c1O)C(=O)[C@H](C)[C@@H](C)O2
Homo sapiens
  Activity: 459%
[3]
  Activity: 4430%
[4]
  inhibition: inactive
[5]
  Activity: Active
Oocyte [6]
  Activity: inactive
Oocyte [7]
  Activity: Active
[8]
  Activity: Active
[9]
  Activity: 0.71%
[10]
  Activity: Active
Oocyte [11]
  Activity: inactive
[12]
  Activity: 3830%
[13]
  Activity: Active
[14]
  Activity: Active
[15]
  Activity: Active
Oocyte [16]
  Activity: inactive
Oocyte [17]
  Activity: inactive
[2]
  Activity: 60%
[18]
  Activity: Active
Oocyte [19]
  Activity: Active
Oocyte [20]
  Activity: Active
[21]
  EC50: 4.5 µM
